One may read the EC50 as the concentration needed to bring the measured effect to its halfway point.

Some results are limits rather than exact numbers.

In assay [1] the target is T1, REV-ERBα LBD (human; residues 281-614 Δ324-422) (Homo sapiens, UniProt P20393, DEL324-422).
T1 construct: 6×Histag-REV-ERBα LBD (human; residues 281-614 Δ324-422); made in house; host or cells: Escherichia coli
The experiment in a line: TR-FRET corepressor interaction assay (REV-ERBα LBD, FITC-SMRT peptide). Type of assay: biochemical. As to conditions: Table 2, read-out: REVERBα agonism (EC50 class, FRET assay). The essentials:
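Compound serial dilutions (in DMSO, triplicate) incubated 2 h at 4 °C; Tb donor excited at 340 nm, emission read at 495 nm and FITC acceptor at 520 nm. TR-FRET ratio (520/495 nm) plotted against ligand concentration and fitted to a sigmoidal dose-response curve.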
A general note: In TR-FRET formats the signal depends on donor and acceptor labels being close together.

The target in the next assay is T2, REV-ERBβ (Homo sapiens, UniProt Q14995).
T2 construct: 6×Histag-REV-ERBα LBD (human; residues 381-579); made in house; host or cells: Escherichia coli
T2 sequence (Q14995 381-579): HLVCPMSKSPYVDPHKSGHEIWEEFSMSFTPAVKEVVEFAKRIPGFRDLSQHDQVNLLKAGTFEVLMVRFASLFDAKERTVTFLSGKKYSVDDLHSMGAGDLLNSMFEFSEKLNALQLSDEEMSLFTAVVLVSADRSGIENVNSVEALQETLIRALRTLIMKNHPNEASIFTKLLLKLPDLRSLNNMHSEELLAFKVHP
The experiment in a line: TR-FRET corepressor interaction assay (REV-ERBβ, FITC-SMRT peptide). Type of assay: biochemical. As to conditions: Table 2, read-out: REVERBβ agonism (EC50 class, FRET assay). The protocol: TR-FRET corepressor interaction assay. The time-resolved fluorescence resonance energy transfer (TR-FRET) assay was performed in black low-volume 384-well plates (Greiner). […] Ligand stocks were prepared via serial dilution in DMSO, added to wells in triplicate, and plates were incubated at 4° C. for 2 h and read using a BioTek Synergy Neo multimode plate reader. The Tb donor was excited at 340 nm; its fluorescence emission was monitored at 495 nm, and the acceptor FITC emission was measured at 520 nm; and the TR-FRET ratio was calculated as the signal at 520 nm divided by the signal at 495 nm. Data were plotted using GraphPad Prism as TR-FRET ratio vs. ligand concentration and fit to sigmoidal dose response curve equation.
Exemplary compounds of the present disclosure were assayed as described above to assess agonism of REV-ERBα and REV-ERBβ.

T1 sequence (P20393 with tags, fused parts or gaps DEL324-422): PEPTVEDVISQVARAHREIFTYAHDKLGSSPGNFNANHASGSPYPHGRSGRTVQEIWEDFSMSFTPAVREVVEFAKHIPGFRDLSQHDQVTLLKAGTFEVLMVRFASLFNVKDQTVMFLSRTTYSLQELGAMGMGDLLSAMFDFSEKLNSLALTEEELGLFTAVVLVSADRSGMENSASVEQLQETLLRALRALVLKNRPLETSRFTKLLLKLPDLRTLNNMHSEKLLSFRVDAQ
T1 sequence (Q9Y618 2335-2356 partner limits assumed): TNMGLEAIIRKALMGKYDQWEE

For the compound `CC(C)(C)Cn1cc([C@H](NS(=O)(=O)C2CC2)C(F)(F)F)c2ccc(-c3ccccc3C(F)(F)F)cc21` [Example 322, (S)—N-(2,2,2-trifluoro-1-(1-neopentyl-6-(2-(trifluoromethyl)phenyl)-1H-indol-3-yl)ethyl)cyclopropanesulfonamide], the concentration for a half-maximal effect (EC50) was below 500 nM in assay [1] and 500 to 3000 nM on REV-ERBβ.

As to `CC(C)Cn1cc(CCNS(=O)(=O)N(C)C)c2ccc(-c3ccncc3)nc21` [Example 203, dimethyl({2-[1-(2-methylpropyl)-6-(pyridin-4-yl)-1H-pyrrolo[2,3-b]pyridin-3-yl]ethyl}sulfamoyl)amine], the EC50 was below 500 nM in assay [1] and above 3000 nM at REV-ERBβ.

For `CC(C)Cn1cc(CCNS(=O)(=O)N(C)C)c2ccc(-c3cncnc3)cc21` [Compound 29, dimethyl({2-[1-(2-methylpropyl)-6-(pyrimidin-5-yl)-1H-indol-3-yl]ethyl}sulfamoyl)amine], the EC50 in assay [1] is 500 to 3000 nM; on REV-ERBβ, above 3000 nM.

`CCCc1ccc2c(CCNS(=O)(=O)N(C)C)cn(CC(C)C)c2c1` [Compound 98, dimethyl({2-[1-(2-methylpropyl)-6-propyl-1H-indol-3-yl]ethyl}sulfamoyl)amine]: the EC50 is below 500 nM in assay [1] and above 3000 nM on REV-ERBβ.

As for `CC(C)Cn1cc(CCNS(=O)(=O)N(C)C)c2ccc(-c3ncccn3)cc21` [Compound 32, dimethyl({2-[1-(2-methylpropyl)-6-(pyrimidin-2-yl)-1H-indol-3-yl]ethyl}sulfamoyl)amine], the EC50 in assay [1] is 500 to 3000 nM; on REV-ERBβ it was above 3000 nM.

As for `CC(C)(C)Cc1cn(CCNS(=O)(=O)C2CC2)c2ccc(-c3c(Cl)cc(F)cc3Cl)cc12` [Example 297, N-(2-(5-(2,6-dichloro-4-fluorophenyl)-3-neopentyl-1H-indol-1-yl)ethyl) cyclo-propane sulfonamide], the EC50 (in assay [1]; on REV-ERBβ) was 500 to 3000 nM in each case.

Consider `CC(C)C(=O)n1cc(C(C)NS(=O)(=O)N(C)C)c2ccc(-c3ccncc3)cc21` (centres unmarked) [Example 180, 1-(3-{1-[(dimethylsulfamoyl)amino]ethyl}-6-(pyridin-4-yl)-1H-indol-1-yl)-2-methylpropan-1-one], for which the EC50 was below 500 nM in assay [1] and above 3000 nM at REV-ERBβ.

Regarding `CC(C)Cn1cc(CCNS(=O)(=O)N(C)C)c2ccc(C(C)C)cc21` [Compound 91, dimethyl({2-[1-(2-methylpropyl)-6-(propan-2-yl)-1H-indol-3-yl]ethyl}sulfamoyl)amine], the 50% effective concentration (EC50) in assay [1] was below 500 nM; on REV-ERBβ it was 500 to 3000 nM.

Take `CC(C)Cn1cc(CCNS(=O)(=O)N(C)C)c2ccc(C3CCCCC3)cc21` [Compound 16]: the EC50 in assay [1] was below 500 nM; at REV-ERBβ, 500 to 3000 nM.

With `Cc1noc(C)c1S(=O)(=O)NCCc1cn(CC(C)C)c2cc(-c3ccncc3)ccc12` [Compound 14], the EC50 (in assay [1]; at REV-ERBβ) was above 3000 nM in each case.

For `CC(C)Cn1cc(CCNS(=O)(=O)N(C)C)c2ccc(C(F)(F)F)cc21` [Example 105, dimethyl({2-[1-(2-methylpropyl)-6-(trifluoromethyl)-1H-indol-3-yl]ethyl}sulfamoyl)amine], the EC50 in assay [1] is below 500 nM; at REV-ERBβ it was above 3000 nM.

Turning to `CC(C)Cn1cc(CCNS(=O)(=O)N(C)C)c2ccc(-c3ccnn3C)cc21` [Compound 34, dimethyl({2-[6-(1-methyl-1H-pyrazol-5-yl)-1-(2-methylpropyl)-1H-indol-3-yl]ethyl}sulfamoyl)amine], the EC50 in assay [1] was below 500 nM; at REV-ERBβ it was above 3000 nM.

`CC(C)Cn1cc(CCNS(=O)(=O)N(C)C)c2ccc(-c3cnn(C)c3)cc21` [Compound 33, dimethyl({2-[6-(1-methyl-1H-pyrazol-4-yl)-1-(2-methylpropyl)-1H-indol-3-yl]ethyl}sulfamoyl)amine]: the concentration giving a half-maximal response (EC50) (in assay [1]; on REV-ERBβ) was above 3000 nM throughout.

As for `CC(C)Cn1cc(CCNS(=O)(=O)N(C)C)c2ccc(-c3cccnc3)cc21` [Compound 28, dimethyl({2-[1-(2-methylpropyl)-6-(pyridin-3-yl)-1H-indol-3-yl]ethyl}sulfamoyl)amine], the EC50 in assay [1] is below 500 nM; at REV-ERBβ it was above 3000 nM.

For the compound `CC(C)Cn1cc(CNS(=O)(=O)C(C)C)c2cc(F)c(-c3ccncc3)cc21` [Compound 265], the concentration for a half-maximal effect (EC50) in assay [1] is below 500 nM; on REV-ERBβ it was above 3000 nM.

For the compound `CC(C)Cn1cc(CCNS(=O)(=O)N(C)C)c2ccc(-c3cccc4ccccc34)cc21` [Compound 39, dimethyl({2-[1-(2-methylpropyl)-6-(naphthalen-1-yl)-1H-indol-3-yl]ethyl}sulfamoyl)amine], the half-maximal effective concentration (EC50) was below 500 nM in assay [1] and above 3000 nM at REV-ERBβ.

As to `CC(C)Cn1cc(CCNS(=O)(=O)N(C)C)c2ccc(C3CCCC3)cc21` [Compound 99, ({2-[6-cyclopentyl-1-(2-methylpropyl)-1H-indol-3-yl]ethyl}sulfamoyl)dimethylamine], the results for the EC50 (in assay [1]; at REV-ERBβ) were below 500 nM and 500 to 3000 nM, respectively.

Turning to `CN(C)S(=O)(=O)N[C@@H](c1cn(CC(C)(C)C)c2cc(-c3ccccc3C(F)(F)F)ccc12)C(F)(F)F` [Example 323, {[(1S)-1-[1-(2,2-dimethylpropyl)-6-[2-(trifluoromethyl)phenyl]-1H-indol-3-yl]-2,2,2-trifluoroethyl]sulfamoyl}dimethylamine], the EC50 was below 500 nM in assay [1] and above 3000 nM at REV-ERBβ.

Consider `CC(C)Cn1cc(CCNS(=O)(=O)N(C)C)c2ccc(-c3ccccn3)cc21` [Compound 31, dimethyl({2-[1-(2-methylpropyl)-6-(pyridin-2-yl)-1H-indol-3-yl]ethyl}sulfamoyl)amine], for which the EC50 in assay [1] was 500 to 3000 nM; on REV-ERBβ, above 3000 nM.

For `CC(C)Cn1cc(CCNS(=O)(=O)C(C)C)c2cc(F)c(-c3ccccc3Cl)cc21` [Compound 262], the half-maximal effective concentration (EC50) in assay [1] is below 500 nM; on REV-ERBβ it was above 3000 nM.

Take `CC(C)CCn1cc(CCNS(=O)(=O)N(C)C)c2ccc(-c3ccncc3)cc21` [Compound 231]: the half-maximal effective concentration (EC50) in assay [1] was below 500 nM; on REV-ERBβ it was 500 to 3000 nM.

Regarding `CC(C)Cn1cc(CCNS(=O)(=O)N(C)C)c2ccc(-c3ccnc4ccccc34)cc21` [Compound 37, dimethyl({2-[1-(2-methylpropyl)-6-(quinolin-4-yl)-1H-indol-3-yl]ethyl}sulfamoyl)amine], the EC50 was below 500 nM in assay [1] and 500 to 3000 nM on REV-ERBβ.

For the compound `CC(C)Cn1cc([C@H](NS(=O)(=O)C2CC2)C(F)(F)F)c2ccc(C(C)C)cc21` [Example 333, (S)—N-(2,2,2-trifluoro-1-(1-isobutyl-6-isopropyl-1H-indol-3-yl)ethyl)cyclopropanesulfonamide], the concentration for a half-maximal effect (EC50) in assay [1] is below 500 nM; on REV-ERBβ, above 3000 nM.

Regarding `CC(C)Cc1cn(CCNS(=O)(=O)C2CC2)c2ncc(-c3ccncc3)cc12` [Example 365, N-(2-(3-isobutyl-5-(pyridin-4-yl)-1H-pyrrolo[2,3-b]pyridin-1-yl)ethyl)cyclopropanesulfonamide], the EC50 in assay [1] is below 500 nM; at REV-ERBβ it was above 3000 nM.

As to `CC(C)Cn1cc(CCNS(=O)(=O)N(C)C)c2ccc(-c3c(Cl)cccc3Cl)cc21` [Example 80, N-{2-[6-(2,6-dichlorophenyl)-1-(2-methylpropyl)-1H-indol-3-yl]ethyl}-N,N-dimethyl-sulfuric diamide], the EC50 in assay [1] was below 500 nM; on REV-ERBβ it was above 3000 nM.

Turning to `CC(C)Cn1cc([C@H](NS(=O)(=O)N(C)C)C(F)(F)F)c2cc(F)c(C3CC3)cc21` [Example 329, {[(1S)-1-[6-cyclopropyl-5-fluoro-1-(2-methylpropyl)-1H-indol-3-yl]-2,2,2-trifluoroethyl]sulfamoyl}dimethylamine], the EC50 in assay [1] is below 500 nM; on REV-ERBβ, above 3000 nM.

For the compound `CC(C)Cn1cc(CCNS(=O)(=O)C2CC2)c2ccc(-c3ccncc3)cc21` [Compound 13], the EC50 in assay [1] was below 500 nM; at REV-ERBβ it was above 3000 nM.

Take `CC(C)Cn1cc(CCNS(=O)(=O)N(C)C)c2ccc(-c3ccnc(Cl)c3)cc21` [Compound 20]: the concentration giving a half-maximal response (EC50) in assay [1] was below 500 nM; at REV-ERBβ, above 3000 nM.

With `CC(C)(C)Cn1cc(CNS(=O)(=O)C2CC2)c2cc(F)c(-c3ccccc3C(F)(F)F)cc21` [Compound 278], the values for the EC50 (in assay [1]; on REV-ERBβ) were below 500 nM and 500 to 3000 nM, respectively.

In the case of `CC(C)Cn1cc(CCNS(=O)(=O)CC(C)C)c2ccc(-c3ccncc3)cc21` [Compound 12], the concentration for a half-maximal effect (EC50) in assay [1] is below 500 nM; at REV-ERBβ it was above 3000 nM.

`CC(C)C(=O)n1cc(C(C)NS(=O)(=O)N(C)C)c2ccc(-c3ccccc3C(F)(F)F)cc21` (centres unmarked) [Example 195, 1-(3-{1-[(dimethylsulfamoyl)amino]ethyl}-6-[2-(trifluoromethyl)phenyl]-1H-indol-1-yl)-2-methylpropan-1-one]: the concentration for a half-maximal effect (EC50) in assay [1] was below 500 nM; on REV-ERBβ it was 500 to 3000 nM.

The values above are taken from patent US20230339886A1 (University of Florida Research Foundation, Incorporated, priority 2020, published 2023).
